{
  "source": "patent US20110158953A1",
  "about": "“TUMOR SUPPRESSION THROUGH PLEXIN C1” (UNIVERSITY OF ROCHESTER, priority 2008, published 2011)",
  "key": {"Erk1/Erk2": {"system": "Erk1/Erk2", "assay": "Sema7A-stimulated MAP kinase activation (P-Erk1/Erk2) in human melanocytes (Western blot)", "format": "cell-based", "settings": "PD 98059 10 μM one hour prior to Sema7A 25 ng/ml for 5 minutes", "procedure": "Total cell lysates were resolved on 10% SDS-PAGE and blotted for phosphorylated Erk1/Erk2; the blot was stripped and re-blotted for total Erk1/Erk2. […] Results are representative of 2 separate experiments. The specificity of MAP kinase activation was tested in melanocytes by the inclusion of the selective p42/44 MAP kinase inhibitor PD 98059 (10 μM) in cells treated with Sema7A (25 ng/ml) for 5 minutes (FIG. 4D). Shown are cell lyates resolved on SDS-PAGE and blotted for P-Erk1/Erk2. The blot was stripped and reblotted for total Erk1/Erk2. As expected, Sema7A stimulated phosphorylation of Erk1/Erk2 within 5 minutes of treatment. […] Results are representative of 2 separate experiments. […]\nFor Western blotting, cells were lysed in RIPA buffer (150 mM NaCl, 1% NP-40, 0.5% DOC, 0.1% SDS, 50 mM Tris-HCl) with protease inhibitors (Boehringer Mannheim, Gmbt, Germany) and phosphatase inhibitors (Gbiosciences, St. Louis, Mo.) and protein was quantified using bovine serum albumen (BSA) as standard (Bio-Rad Laboratories, Hercules, Calif.). […] After washing in PBS, cells were re-suspended in 0.5% formalin in PBS/1% BSA and analyzed using a FACS Caliber Machine (Becton Dickenson) at the flow cytometry core facility at the University of Rochester."}, "Plexin C1": {"system": "Plexin C1", "assay": "Plexin C1 protein expression in human melanoma cell lines treated with DNA methylation inhibitor (Western blot)", "format": "cell-based", "settings": "5 days; for Change in Plexin C1 protein: 3 μM", "procedure": "Results are representative of 2 separate experiments.\nPromotor hypermethylation plays a major role in transcriptional silencing of tumor suppressor genes in cancer and in melanoma (Dahl and Guldberg, 2007; Gronbaek et al., 2007; Rothhammer and Bosserhoff, 2007). To determine if Plexin C1 expression is regulated by DNA hypermethylation, melanoma cells were treated for 5 days with the DNA methylation inhibitor 5-Aza-2′-Deoxycytidine (5-Aza2Dc; 3 μM). Total cell lysates were then blotted for Plexin C1. […] But, a dose of 1.0 μM was the lowest dose that stimulated Plexin C1 expression in the YURIF and WW165 cell lines (FIG. 1C).\nNeonatal foreskins were obtained according to the University of Rochester Research Subjects Review Board guidelines and were the source of cultured human melanocytes. Human melanocytes were cultured in MCDB 153 supplemented with 0.5% fetal bovine serum (FBS), bovine pituitary extract (15 μg/ml), phorbol ester (10 nM), basic fibroblast growth factor (1 ng/ml), insulin (5 μg/ml) and hydrocortisone (500 ng/ml). All supplements were purchased from Sigma Co, except FBS, which was purchased from Mediatech (Manassas, Va.). The following human melanoma cell lines were purchased from the Yale University Cell Core Facility: WW165, YURIF, YUSIK, YUMAC, and were maintained in Opti-MEM+5% FBS, except WW165 which was maintained in Opti-MEM+5% FBS and IBMX 0.1 mM. The C32 and WM115 human melanoma cell lines were obtained from American Type Culture Collection (Manassas Va.) and were maintained in Eagle Minimal Essential Media (MEM)+10% FBS and 1 mM sodium pyruvate. The WM115 and WW 165 cell lines were derived from melanomas primary to the skin; the other cell lines were derived from metastatic melanoma.\nFor Western blotting, cells were lysed in RIPA buffer (150 mM NaCl, 1% NP-40, 0.5% DOC, 0.1% SDS, 50 mM Tris-HCl) with protease inhibitors (Boehringer Mannheim, Gmbt, Germany) and phosphatase inhibitors (Gbiosciences, St. Louis, Mo.) and protein was quantified using bovine serum albumen (BSA) as standard (Bio-Rad Laboratories, Hercules, Calif.). Visualization of the immunoreactive proteins was accomplished with an enhanced chemiluminescence reaction (Pierce Chemical, Rockford, Ill.). For analysis of cell surface Sema7A expression in melanoma cell lines by flow cytometry, cells were placed in suspension in PBS/1% BSA and stained with FITC-conjugated antibodies against Sema7A for 30 minutes at room temperature. Negative controls consisted of cells incubated with FITC-conjugated IgM. After washing in PBS, cells were re-suspended in 0.5% formalin in PBS/1% BSA and analyzed using a FACS Caliber Machine (Becton Dickenson) at the flow cytometry core facility at the University of Rochester."}},
  "note": "“Also recorded” adds a separate entry of the source.",
  "data": [
    {"compound": "COc1cccc(-c2cc(=O)c3ccccc3o2)c1N", "note": "[PD 98059]", "values": [
      {"measurement": "Effect on Sema7A-induced Erk1/Erk2 phosphorylation", "setting": "Erk1/Erk2", "value": "no induction; also recorded: inhibited"}
    ]},
    {"compound": "Nc1ncn([C@H]2C[C@H](O)[C@@H](CO)O2)c(=O)n1", "note": "[5-Aza2Dc, 5-Aza-2′-Deoxycytidine]", "values": [
      {"measurement": "Change in Plexin C1 protein", "setting": "Plexin C1; C32 melanoma cells", "value": "no change"},
      {"measurement": "Change in Plexin C1 protein", "setting": "Plexin C1; WM115 melanoma cells", "value": "no change"},
      {"measurement": "Lowest dose that stimulated Plexin C1 expression", "setting": "Plexin C1; WW165 cells, dose response 0.1 μM to 3.0 μM", "value": 1.0, "unit": "µM"},
      {"measurement": "Change in Plexin C1 protein", "setting": "Plexin C1; WW165 melanoma cells", "value": "reduction"},
      {"measurement": "Change in Plexin C1 protein", "setting": "Plexin C1; WW165 melanoma cells, listed as 5-AzaDc", "value": "decrease"},
      {"measurement": "Dose sufficient to increase Plexin C1 expression", "setting": "Plexin C1; YUMAC cells, dose response 0.1 μM to 3.0 μM", "value": 0.1, "unit": "µM"},
      {"measurement": "Change in Plexin C1 protein", "setting": "Plexin C1; YUMAC melanoma cells", "value": "increase"},
      {"measurement": "Lowest dose that stimulated Plexin C1 expression", "setting": "Plexin C1; YURIF cells, dose response 0.1 μM to 3.0 μM", "value": 1.0, "unit": "µM"},
      {"measurement": "Change in Plexin C1 protein", "setting": "Plexin C1; YURIF melanoma cells", "value": "reduction"},
      {"measurement": "Change in Plexin C1 protein", "setting": "Plexin C1; YURIF melanoma cells, listed as 5-AzaDc", "value": "decrease"},
      {"measurement": "Change in Plexin C1 protein", "setting": "Plexin C1; YUSIK melanoma cells", "value": "no change"}
    ]}
  ]
}
